Test system: not listed separately
Assay: Area under the curve determinations of plasma levels in rats (rrAUC), oral 10 mg/kg
Format: in vivo
Details: rat, plasma 0.5-6 h post-dosing, read-out: RR AUC (rapid rat AUC, rrAUC)

Compound | AUC [µM·h]
COc1ccc2c(c1)C(=O)N(C[C@@]1(c3cc4cc(-c5cccnc5)ccc4o3)NC(=O)NC1=O)C2 [Compound 2195] | 1.16
COc1ccc2c(c1)C(=O)N(C[C@@]1(c3cc4nc(N5C(=O)CC[C@H]5CO)ccc4o3)NC(=O)NC1=O)C2 [Compound 2156] | 0.033
COc1ccc2c(c1)C(=O)N(C[C@@]1(c3cc4cc(-c5cccnc5)cnc4o3)NC(=O)NC1=O)C2 [Compound 2254] | 1.77
COc1ccc2c(c1)C(=O)N(C[C@@]1(c3cc4nc(N5CC[C@H](O)C5=O)ccc4o3)NC(=O)NC1=O)C2 [Compound 2159] | 0.527
COc1ccc2c(c1)C(=O)N(C[C@@]1(c3cc4cc(C5(C)NC(=O)NC5=O)c(F)cc4o3)NC(=O)NC1=O)C2 (stereo partly drawn) [Compound 2200] | 0.177
COc1ccc2c(c1)C(=O)N(C[C@@]1(c3cc4cnc(C(F)(F)F)cc4o3)NC(=O)NC1=O)C2 [Compound 2269] | 19.3

Continued, values first:

AUC [µM·h] | Compound
0.534 | COc1ccc2c(c1)C(=O)N(C[C@@]1(c3cc4nc(-n5ccnc5)ccc4o3)NC(=O)NC1=O)C2 [Compound 2164]
2.79 | COc1ccc2c(c1F)C(=O)N(C[C@@]1(c3cc4ccncc4o3)NC(=O)NC1=O)C2 [Compound 2272]
1.07 | COc1ccc2c(c1F)C(=O)N(C[C@@]1(c3cc4cc(-c5cn[nH]c5)c(F)cc4o3)NC(=O)NC1=O)C2 [Compound 1187]
127 | COc1ccc2c(c1)C(=O)N(C[C@@]1(c3cc4cnc(-c5ccccc5F)cc4o3)NC(=O)NC1=O)C2 [Compound 2234]

Same assay, conditions: rat, plasma, blood collected 0.5-6 h post-dosing, read-out: RR AUC (rapid rat AUC, rrAUC)

Compound | AUC [µM·h]
CNC(=O)c1ccc2oc([C@]3(CN4Cc5ccc(OC)cc5C4=O)NC(=O)NC3=O)cc2n1 [Compound 2462] | 1.07
COc1ccc2c(c1)C(=O)N(C[C@@]1(c3cc4c(N5CCCC5=O)nccc4o3)NC(=O)NC1=O)C2 [Compound 2293] | 0.219

More lines, now with the values ahead:

AUC [µM·h] | Compound
1.05 | COc1ccc2c(c1F)C(=O)N(C[C@@]1(c3cc4cc5c(c(C)c4o3)C(=O)NC5)NC(=O)NC1=O)C2 [Compound 2497]
0.304 | COc1ccc2c(c1)C(=O)N(C[C@@]1(c3cc4c5c(ccc4o3)CNC5=O)NC(=O)NC1=O)C2 [Compound 2503]
0.437 | COc1ccc2c(c1F)C(=O)N(C[C@@]1(c3cc4c5c(ccc4o3)C(=O)NC5)NC(=O)NC1=O)C2 [Compound 2506]
1.08 | COc1ccc2c(c1F)C(=O)N(C[C@@]1(c3cc4cc5c(c(F)c4o3)C(=O)NC5)NC(=O)NC1=O)C2 [Compound 2499]
2.31 | COc1ccc2c(c1F)C(=O)N(C[C@@]1(c3cc4cnccc4o3)NC(=O)NC1=O)C2 [Compound 2310]

Target: T1, purified catalytic domain of recombinant human TACE (rhTACEc) (Homo sapiens, UniProt P78536, N452Q/S266A)
T1 construct: 6xHis (C); made in house; host or cells: baculovirus/Hi5 insect cells
T1 sequence (P78536 215-477 S266A/N452Q): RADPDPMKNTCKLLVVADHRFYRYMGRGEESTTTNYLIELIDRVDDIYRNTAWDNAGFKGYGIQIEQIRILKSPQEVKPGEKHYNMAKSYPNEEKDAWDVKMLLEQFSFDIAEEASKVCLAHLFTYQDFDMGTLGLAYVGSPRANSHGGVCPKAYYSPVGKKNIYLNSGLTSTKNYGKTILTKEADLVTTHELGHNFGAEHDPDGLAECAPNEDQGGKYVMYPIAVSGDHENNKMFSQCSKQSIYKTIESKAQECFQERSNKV
Assay: TACE kinetic assay: cleavage of internally quenched peptide substrate TNF-FRET 2 (Ki)
Format: biochemical
Details: Ki, TNF-FRET 2 substrate

Compound | Ki [nM]
COc1ccc2c(c1)C(=O)N(C[C@@]1(c3cc4cc(-c5cccnc5)ccc4o3)NC(=O)NC1=O)C2 [Compound 2195] | 0.966
COc1ccc2c(c1)C(=O)N(C[C@@]1(c3cc4cnc(C(F)(F)F)cc4o3)NC(=O)NC1=O)C2 [Compound 2269] | 0.497

Same assay, conditions: TNF-FRET 2 substrate, read-out: Ki

Compound | Ki [nM]
CNC(=O)c1ccc2oc([C@]3(CN4Cc5ccc(OC)cc5C4=O)NC(=O)NC3=O)cc2n1 [Compound 2462] | 0.859
COc1ccc2c(c1)C(=O)N(C[C@@]1(c3cc4nc(N5C(=O)CC[C@H]5CO)ccc4o3)NC(=O)NC1=O)C2 [Compound 2156] | 0.976
COc1ccc2c(c1)C(=O)N(C[C@@]1(c3cc4cc(-c5cccnc5)cnc4o3)NC(=O)NC1=O)C2 [Compound 2254] | 0.599
COc1ccc2c(c1)C(=O)N(C[C@@]1(c3cc4nc(N5CC[C@H](O)C5=O)ccc4o3)NC(=O)NC1=O)C2 [Compound 2159] | 0.935
COc1ccc2c(c1)C(=O)N(C[C@@]1(c3cc4cc(C5(C)NC(=O)NC5=O)c(F)cc4o3)NC(=O)NC1=O)C2 (stereo partly drawn) [Compound 2200] | 1.85
COc1ccc2c(c1)C(=O)N(C[C@@]1(c3cc4c(N5CCCC5=O)nccc4o3)NC(=O)NC1=O)C2 [Compound 2293] | 1.26

The remaining lines, values ahead:

Ki [nM] | Compound
0.29 | COc1ccc2c(c1F)C(=O)N(C[C@@]1(c3cc4cc5c(c(C)c4o3)C(=O)NC5)NC(=O)NC1=O)C2 [Compound 2497]
0.557 | COc1ccc2c(c1)C(=O)N(C[C@@]1(c3cc4nc(-n5ccnc5)ccc4o3)NC(=O)NC1=O)C2 [Compound 2164]
0.3 | COc1ccc2c(c1F)C(=O)N(C[C@@]1(c3cc4ccncc4o3)NC(=O)NC1=O)C2 [Compound 2272]
0.36 | COc1ccc2c(c1)C(=O)N(C[C@@]1(c3cc4c5c(ccc4o3)CNC5=O)NC(=O)NC1=O)C2 [Compound 2503]
0.23 | COc1ccc2c(c1F)C(=O)N(C[C@@]1(c3cc4cc(-c5cn[nH]c5)c(F)cc4o3)NC(=O)NC1=O)C2 [Compound 1187]
0.323 | COc1ccc2c(c1F)C(=O)N(C[C@@]1(c3cc4c5c(ccc4o3)C(=O)NC5)NC(=O)NC1=O)C2 [Compound 2506]
0.527 | COc1ccc2c(c1)C(=O)N(C[C@@]1(c3cc4cnc(-c5ccccc5F)cc4o3)NC(=O)NC1=O)C2 [Compound 2234]
0.33 | COc1ccc2c(c1F)C(=O)N(C[C@@]1(c3cc4cc5c(c(F)c4o3)C(=O)NC5)NC(=O)NC1=O)C2 [Compound 2499]
0.37 | COc1ccc2c(c1F)C(=O)N(C[C@@]1(c3cc4cnccc4o3)NC(=O)NC1=O)C2 [Compound 2310]

Test system: TNF-α production from human whole blood
Assay: Inhibition of TNF-α production from human whole blood (hWBA), LPS stimulated, ELISA
Format: cell-based
Details: Homo sapiens, 3.5 h, human whole blood diluted 1:1, LPS stimulated, 3.5 h, TNF-α by ELISA; read-out: hWBA (IC50)

Compound | IC50 [nM]
COc1ccc2c(c1)C(=O)N(C[C@@]1(c3cc4cc(-c5cccnc5)ccc4o3)NC(=O)NC1=O)C2 [Compound 2195] | 2120
COc1ccc2c(c1)C(=O)N(C[C@@]1(c3cc4nc(N5C(=O)CC[C@H]5CO)ccc4o3)NC(=O)NC1=O)C2 [Compound 2156] | 325
COc1ccc2c(c1)C(=O)N(C[C@@]1(c3cc4cc(-c5cccnc5)cnc4o3)NC(=O)NC1=O)C2 [Compound 2254] | 1670
COc1ccc2c(c1)C(=O)N(C[C@@]1(c3cc4nc(N5CC[C@H](O)C5=O)ccc4o3)NC(=O)NC1=O)C2 [Compound 2159] | 331
COc1ccc2c(c1)C(=O)N(C[C@@]1(c3cc4cc(C5(C)NC(=O)NC5=O)c(F)cc4o3)NC(=O)NC1=O)C2 (stereo partly drawn) [Compound 2200] | 217
COc1ccc2c(c1)C(=O)N(C[C@@]1(c3cc4cnc(C(F)(F)F)cc4o3)NC(=O)NC1=O)C2 [Compound 2269] | 1620

Next, values leading:

IC50 [nM] | Compound
168 | COc1ccc2c(c1)C(=O)N(C[C@@]1(c3cc4nc(-n5ccnc5)ccc4o3)NC(=O)NC1=O)C2 [Compound 2164]
167 | COc1ccc2c(c1F)C(=O)N(C[C@@]1(c3cc4ccncc4o3)NC(=O)NC1=O)C2 [Compound 2272]
286 | COc1ccc2c(c1F)C(=O)N(C[C@@]1(c3cc4cc(-c5cn[nH]c5)c(F)cc4o3)NC(=O)NC1=O)C2 [Compound 1187]
14300 | COc1ccc2c(c1)C(=O)N(C[C@@]1(c3cc4cnc(-c5ccccc5F)cc4o3)NC(=O)NC1=O)C2 [Compound 2234]

Same assay, conditions: Homo sapiens, human whole blood diluted 1:1, LPS stimulated, TNF-α by ELISA; read-out: hWBA (IC50)

Compound | IC50 [nM]
CNC(=O)c1ccc2oc([C@]3(CN4Cc5ccc(OC)cc5C4=O)NC(=O)NC3=O)cc2n1 [Compound 2462] | 280
COc1ccc2c(c1)C(=O)N(C[C@@]1(c3cc4c(N5CCCC5=O)nccc4o3)NC(=O)NC1=O)C2 [Compound 2293] | 531

Second part, the compound after the results:

IC50 [nM] | Compound
673 | COc1ccc2c(c1F)C(=O)N(C[C@@]1(c3cc4cc5c(c(C)c4o3)C(=O)NC5)NC(=O)NC1=O)C2 [Compound 2497]
170 | COc1ccc2c(c1)C(=O)N(C[C@@]1(c3cc4c5c(ccc4o3)CNC5=O)NC(=O)NC1=O)C2 [Compound 2503]
156 | COc1ccc2c(c1F)C(=O)N(C[C@@]1(c3cc4c5c(ccc4o3)C(=O)NC5)NC(=O)NC1=O)C2 [Compound 2506]
72 | COc1ccc2c(c1F)C(=O)N(C[C@@]1(c3cc4cc5c(c(F)c4o3)C(=O)NC5)NC(=O)NC1=O)C2 [Compound 2499]
197 | COc1ccc2c(c1F)C(=O)N(C[C@@]1(c3cc4cnccc4o3)NC(=O)NC1=O)C2 [Compound 2310]
